Laboratory results from patent US11168093B2, “Thienopyridine inhibitors of RIPK2” (Celgene Corporation, priority 2018, dated 2021).

target: RIPK2 enzyme (Homo sapiens (Human), UniProt O43353); assay: RIPK2 inhibition assay, TR-FRET LanthaScreen Tracer 199 screening assay; format: binding; details: 5 nM RIPK2 enzyme, Tracer 199 at 50 nM, Eu-anti-His Antibody at 2 nM, 1 hour incubation
Description: All data was collected using a standard TR-FRET screening assay: LanthaScreen Tracer 199 at 50 nM, Eu-anti-His Antibody at 2 nM, 5 nM RIPK2 enzyme, and 1× Kinase Reaction Buffer. There was a 1 hour incubation prior to read. TR-FRET signal of the interaction (340Ex/665Em/615Em) was read at room temperature with standard setting. Background was subtracted of wells containing no enzyme. Percent inhibition was based on uninhibited controls log (inhibitor) vs. response. Variable slope equation was used with no constraints: Log Y=Bottom+(Top−Bottom)/(1+10^((Log IC50−X)*Hill Slope)).
The compound numbers correspond to the compound numbers above.

RIPK2 enzyme, sequence (O43353 whole entry): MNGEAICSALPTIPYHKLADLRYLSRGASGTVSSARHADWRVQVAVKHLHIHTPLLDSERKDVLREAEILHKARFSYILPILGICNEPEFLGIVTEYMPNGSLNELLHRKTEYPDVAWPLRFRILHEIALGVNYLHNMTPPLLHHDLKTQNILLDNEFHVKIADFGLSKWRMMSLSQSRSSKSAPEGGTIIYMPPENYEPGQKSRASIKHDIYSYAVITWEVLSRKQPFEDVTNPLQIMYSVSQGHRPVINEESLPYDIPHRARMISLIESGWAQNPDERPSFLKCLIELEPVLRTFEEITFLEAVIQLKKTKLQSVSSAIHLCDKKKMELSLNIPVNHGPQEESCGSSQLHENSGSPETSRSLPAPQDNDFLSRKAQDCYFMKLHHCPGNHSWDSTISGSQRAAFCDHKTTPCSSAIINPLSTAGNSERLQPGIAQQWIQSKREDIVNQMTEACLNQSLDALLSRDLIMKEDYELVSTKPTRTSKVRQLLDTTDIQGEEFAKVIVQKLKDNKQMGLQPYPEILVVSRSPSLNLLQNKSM

Compound | IC50 [nM]
CC(=O)N1CCC=C(c2cc3c(Nc4ccc5scnc5c4)ccnc3s2)CC1 [Example 107, 1-(4-(4-(benzo[d]thiazol-5-ylamino)thieno[2,3-b]pyridin-2-yl)-2,3,6,7-tetrahydro-1H-azepin-1-yl)ethan-1-one] | ≤ 10
CC1C(c2cc3c(Nc4ccc5scnc5c4)ccnc3s2)CCN1CCO (stereo not shown) [Example 31, 2-(3-(4-(benzo[d]thiazol-5-ylamino)thieno[2,3-b]pyridin-2-yl)-2-methylpyrrolidin-1-yl)ethan-1-ol] | ≤ 10
CCN1CCC(c2cc3c(Nc4ccc5scnc5c4F)ccnc3s2)C1C (stereo not shown) [Example 88, N-(2-(1-ethyl-2-methylpyrrolidin-3-yl)thieno[2,3-b]pyridin-4-yl)-4-fluorobenzo[d]thiazol-5-amine] | ≤ 10
CCN1CCCC(c2cc3c(Nc4ccc5scnc5c4)c(F)cnc3s2)C1C (stereo not shown) [Example 121, N-(2-(1-ethyl-2-methylpiperidin-3-yl)-5-fluorothieno[2,3-b]pyridin-4-yl)benzo[d]thiazol-5-amine] | ≤ 10
C1=C(c2cc3c(Nc4ccc5scnc5c4)ccnc3s2)C2(CCOCC2)NC1 [Example 46, N-(2-(8-oxa-1-azaspiro[4.5]dec-3-en-4-yl)thieno[2,3-b]pyridin-4-yl)benzo[d]thiazol-5-amine] | ≤ 10
CC1NCCC1c1cc2c(Nc3ccc4scnc4c3)ccnc2s1 (stereo not shown) [Example 26, N-(2-(2-methylpyrrolidin-3-yl)thieno[2,3-b]pyridin-4-yl)benzo[d]thiazol-5-amine] | ≤ 10
CCN1CCC(c2cc3c(Nc4c(F)cc5scnc5c4F)ccnc3s2)C1(C)C (stereo not shown) [Example 97, N-(2-(1-ethyl-2,2-dimethylpyrrolidin-3-yl)thieno[2,3-b]pyridin-4-yl)-4,6-difluorobenzo[d]thiazol-5-amine] | ≤ 10
COCCN1CCC=C(c2cc3c(Nc4ccc5scnc5c4)ccnc3s2)C1C (stereo not shown) [Example 12, N-(2-(1-(2-methoxyethyl)-2-methyl-1,2,5,6-tetrahydropyridin-3-yl)thieno[2,3-b]pyridin-4-yl)benzo[d]thiazol-5-amine] | ≤ 10
CCN1CCC(c2cc3c(Nc4ccc5scnc5c4)ccnc3s2)C12CCOCC2 (stereo not shown) [Example 48, N-(2-(1-ethyl-8-oxa-1-azaspiro[4.5]decan-4-yl)thieno[2,3-b]pyridin-4-yl)benzo[d]thiazol-5-amine] | ≥ 50
C[C@H]1NCCC[C@H]1c1cc2c(Nc3ccc4scnc4c3F)ccnc2s1 [Example 56b, 4-fluoro-N-(2-((2R,3R)-2-methyl-piperidin-3-yl)thieno[2,3-b]pyridin-4-yl)benzo[d]thiazol-5-amine] | ≤ 10
CC1NCC=C1c1cc2c(Nc3ccc4scnc4c3)ccnc2s1 (stereo not shown) [Example 25, N-(2-(2-methyl-2,5-dihydro-1H-pyrrol-3-yl)thieno[2,3-b]pyridin-4-yl)benzo[d]thiazol-5-amine] | ≤ 10
C[C@H]1NCCC[C@@H]1c1cc2c(Nc3c(F)cc4scnc4c3F)ccnc2s1 [Example 67a, 4,6-difluoro-N-(2-((2R,3S)-2-methylpiperidin-3-yl)thieno[2,3-b]pyridin-4-yl)benzo[d]thiazol-5-amine] | ≤ 10
C1=C(c2cc3c(Nc4ccc5scnc5c4)ccnc3s2)C2(COC2)NC1 [Example 39, N-(2-(2-oxa-5-azaspiro[3.4]oct-7-en-8-yl)thieno[2,3-b]pyridin-4-yl)benzo[d]thiazol-5-amine] | ≤ 10
CC1NCCCC1c1cc2c(Nc3ccc4scnc4c3)c(F)cnc2s1 (stereo not shown) [Example 119, N-(5-fluoro-2-(2-methylpiperidin-3-yl)thieno[2,3-b]pyridin-4-yl)benzo[d]thiazol-5-amine] | 20 to 50
Fc1cc2scnc2c(F)c1Nc1ccnc2sc(C3CCNC34CCOC4)cc12 (stereo not shown) [Example 99, N-(2-(7-oxa-1-azaspiro[4.4]nonan-4-yl)thieno[2,3-b]pyridin-4-yl)-4,6-difluorobenzo[d]thiazol-5-amine] | 10 to 20
C[C@@H]1NCCC[C@H]1c1cc2c(Nc3c(F)cc4scnc4c3F)ccnc2s1 [Example 68a, 4,6-difluoro-N-(2-((2S,3R)-2-methylpiperidin-3-yl)thieno[2,3-b]pyridin-4-yl)benzo[d]thiazol-5-amine] | 10 to 20
CC(=O)N1CCCC(c2cc3c(Nc4ccc5scnc5c4)ccnc3s2)C1C (stereo not shown) [Example 10, 1-(3-(4-(benzo[d]thiazol-5-ylamino)thieno[2,3-b]pyridin-2-yl)-2-methylpiperidin-1-yl)ethan-1-one] | ≤ 10
C[C@@H]1NCCC[C@@H]1c1cc2c(Nc3cc4ncsc4cc3F)ccnc2s1 [Example 51b] | 20 to 50
CCOCCN1CCCC(c2cc3c(Nc4ccc5scnc5c4)ccnc3s2)C1C (stereo not shown) [Example 19, N-(2-(1-(2-ethoxyethyl)-2-methylpiperidin-3-yl)thieno[2,3-b]pyridin-4-yl)benzo[d]thiazol-5-amine] | 10 to 20
CC1C(c2cc3c(Nc4ccc5scnc5c4)ccnc3s2)=CCCN1C (stereo not shown) [Example 2, N-(2-(1,2-dimethyl-1,2,5,6-tetrahydropyridin-3-yl)thieno[2,3-b]pyridin-4-yl)benzo[d]thiazol-5-amine] | ≤ 10
CCN1CC=C(c2cc3c(Nc4ccc5scnc5c4)ccnc3s2)C12CCOC2 (stereo not shown) [Example 44, N-(2-(1-ethyl-7-oxa-1-azaspiro[4.4]non-3-en-4-yl)thieno[2,3-b]pyridin-4-yl)benzo[d]thiazol-5-amine] | ≤ 10
CCN1CCC=C(c2cc3c(Nc4ccc5scnc5c4)ccnc3s2)C1C (stereo not shown) [Example 5, N-(2-(1-ethyl-2-methyl-1,2,5,6-tetrahydropyridin-3-yl)thieno[2,3-b]pyridin-4-yl)benzo[d]thiazol-5-amine] | ≤ 10
Fc1cc2scnc2cc1Nc1ccnc2sc(C3CCNC34CCOC4)cc12 (stereo not shown) [Example 81, N-(2-(7-oxa-1-azaspiro[4.4]nonan-4-yl)thieno[2,3-b]pyridin-4-yl)-6-fluorobenzo[d]thiazol-5-amine] | ≥ 50
CN1CC=C(c2cc3c(Nc4ccc5scnc5c4)ccnc3s2)C12CCOC2 (stereo not shown) [Example 41, N-(2-(1-methyl-7-oxa-1-azaspiro[4.4]non-3-en-4-yl)thieno[2,3-b]pyridin-4-yl)benzo[d]thiazol-5-amine] | 10 to 20
CC1C(c2cc3c(Nc4cc5ncsc5cc4F)ccnc3s2)CCN1CCO (stereo not shown) [Example 77, 2-(3-(4-((6-fluorobenzo[d]thiazol-5-yl)amino)thieno[2,3-b]pyridin-2-yl)-2-methylpyrrolidin-1-yl)ethan-1-ol] | 10 to 20
CCN1CC=C(c2cc3c(Nc4ccc5scnc5c4)ccnc3s2)C12CCOCC2 [Example 47, N-(2-(1-ethyl-8-oxa-1-azaspiro[4.5]dec-3-en-4-yl)thieno[2,3-b]pyridin-4-yl)benzo[d]thiazol-5-amine] | ≤ 10

Second part, the molecule after the results:

IC50 [nM] | Compound
≥ 50 | CC1NCCCC1c1cc2c(Nc3cc4ncsc4cc3F)c(F)cnc2s1 (stereo not shown) [Example 122a, 6-fluoro-N-(5-fluoro-2-(2-methylpiperidin-3-yl)thieno[2,3-b]pyridin-4-yl) benzo[d]thiazol-5-amine]
≥ 50 | CC1NCCCC1c1cc2c(Nc3ccc4scnc4c3F)c(F)cnc2s1 (single isomer, unassigned) [Example 124a, 4-fluoro-N-(5-fluoro-2-(2-methylpiperidin-3-yl)thieno[2,3-b]pyridin-4-yl)benzo[d]thiazol-5-amine]
≤ 10 | CC1C(c2cc3c(Nc4c(F)cc5scnc5c4F)c(F)cnc3s2)CCCN1C (stereo not shown) [Example 127b]
≤ 10 | CCN1CCC[C@@H](c2cc3c(Nc4c(F)cc5scnc5c4F)ccnc3s2)[C@H]1C [Example 73b, N-[2-((2R,3R)1-ethyl-2-methyl-3-piperidyl)thieno[2,3-b]pyridin-4-yl]-4,6-difluoro-1,3-benzothiazol-5-amine]
≤ 10 | CC1NCCCCC1c1cc2c(Nc3c(F)cc4scnc4c3F)ccnc2s1 (stereo not shown) [Example 118b, 4,6-difluoro-N-(2-(2-methylazepan-3-yl)thieno[2,3-b]pyridin-4-yl)benzo[d]thiazol-5-amine]
≤ 10 | C[C@H]1[C@H](c2cc3c(Nc4c(F)cc5scnc5c4F)ccnc3s2)CCCN1C [Example 71a, N-(2-((2S,3R)-1,2-dimethylpiperidin-3-yl)thieno[2,3-b]pyridin-4-yl)-4,6-difluorobenzo[d]thiazol-5-amine]
≥ 50 | CC1C(c2cc3c(Nc4ccc5scnc5c4F)c(F)cnc3s2)CCCN1C (single isomer, unassigned) [Example 125d, N-(2-(1,2-dimethylpiperidin-3-yl)-5-fluorothieno[2,3-b]pyridin-4-yl)-4-fluorobenzo[d]thiazol-5-amine]
≤ 10 | CCN1CCC=C(c2cc3c(Nc4c(F)cc5scnc5c4F)ccnc3s2)[C@H]1C [Example 72a, (R)—N-(2-(1-ethyl-2-methyl-1,2,5,6-tetrahydropyridin-3-yl)thieno[2,3-b]-pyridin-4-yl)-4,6-difluorobenzo[d]thiazol-5-amine]
≤ 10 | CC1NCCCC1c1cc2c(Nc3c(F)cc4scnc4c3F)c(F)cnc2s1 (stereo not shown) [Example 126a, 4,6-difluoro-N-(5-fluoro-2-(2-methylpiperidin-3-yl)thieno[2,3-b]pyridin-4-yl)benzo[d]thiazol-5-amine]
≤ 10 | CC1NCCCCC1c1cc2c(Nc3ccc4scnc4c3)ccnc2s1 (stereo not shown) [Example 115a, N-(2-(2-methylazepan-3-yl)thieno[2,3-b]pyridin-4-yl)benzo[d]thiazol-5-amine]
10 to 20 | CC1NCCCCC1c1cc2c(Nc3c(F)cc4scnc4c3F)ccnc2s1 (single isomer, unassigned) [Example 118d, 4,6-difluoro-N-(2-(2-methylazepan-3-yl)thieno[2,3-b]pyridin-4-yl)benzo[d]thiazol-5-amine]
